15 molecules from patent publication US11370774B2, “Substituted benzofuran, benzopyrrole, benzothiophene, and structurally related complement inhibitors” (BioCryst Pharmaceuticals, Inc., priority 2018, dated 2022) can be followed below.

One may read the IC50 as the concentration at which inhibition is half-maximal.

This experiment deals with Factor D (Homo sapiens (Human), UniProt P00746). The experiment can be described thus: Factor D esterolytic assay (Z-Lys-SBzl substrate, DTNB, 405 nm). In kind it is biochemical. The conditions noted are these: Z-Lys-SBzl 1.29 mM, pH 7.5, 10% DMSO, tested a minimum of three times, read-out: Measured Ki (IC50) Value for Compounds: IC50. Put shortly: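 Human Factor D ([…]) with 1.29 mM Z-Lys-SBzl in 100 mM HEPES, 500 mM NaCl, pH 7.5, 10% DMSO; substrate added immediately or after room-temperature preincubation. Released thiol reacted with DTNB, rate followed at 405 nm for 600 sec, 690 nm background subtracted. IC50 from percent inhibition versus uninhibited rate, n≥3.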
Chain of Factor D (P00746 26-253): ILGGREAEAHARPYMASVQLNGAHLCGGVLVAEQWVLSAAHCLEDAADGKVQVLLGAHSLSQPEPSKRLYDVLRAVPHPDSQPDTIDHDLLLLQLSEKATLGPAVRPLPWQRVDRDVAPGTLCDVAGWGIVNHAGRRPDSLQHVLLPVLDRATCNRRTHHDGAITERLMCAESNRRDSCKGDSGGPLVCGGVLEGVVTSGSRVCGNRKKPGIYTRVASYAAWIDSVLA

In the case of `NCc1cc(-c2c(F)c(COc3ccccc3CC(=O)O)cc3ccoc23)ccn1` [Compound 519c, 2-(2-((7-(2-(aminomethyl)pyridin-4-yl)-6-fluorobenzofuran-5-yl)methoxy)phenyl)acetic acid], the IC50 was < 1000 nM.

Turning to `COc1ccc(CC(=O)O)c(OCc2cc(-c3ccnc(CN)c3F)c3occ(C(F)(F)F)c3c2)c1` [Compound 498c, 2-(2-((7-(2-(aminomethyl)-3-fluoropyridin-4-yl)-3-(trifluoromethyl)benzofuran-5-yl)methoxy)-4-methoxyphenyl)acetic acid], the IC50 was < 1000 nM.

On to `NC(CF)c1cccc(-c2cc(COc3ccccc3CC(=O)O)cc3ccoc23)c1` (stereo not drawn) [Compound 186c, 2-(2-((7-(3-(1-amino-2-fluoroethyl)phenyl)benzofuran-5-yl)methoxy)phenyl)acetic acid], for which the IC50 was < 1000 nM.

`Cc1cc(CC(=O)O)c(OCc2cc(-c3ccnc(CN)c3)c3occc3c2)cc1C` [Compound 428c, 2-(2-((7-(2-(aminomethyl)pyridin-4-yl)benzofuran-5-yl)methoxy)-4,5-dimethylphenyl)acetic acid]: the IC50 is < 1000 nM.

For the molecule `CC(C)n1ccc2c(-c3cccc(CN)c3F)cc(COc3ccc(F)cc3CC(=O)O)cc21` [Compound 494b, 2-(2-((4-(3-(aminomethyl)-2-fluorophenyl)-1-isopropyl-1H-indol-6-yl)methoxy)-5-fluorophenyl)acetic acid], the IC50 is < 1000 nM.

As to `NCc1cccc(-c2cc(COc3ncccc3CC(=O)O)cc3ccoc23)c1` [Compound 231c, 2-(2-((7-(3-(aminomethyl)phenyl)benzofuran-5-yl)methoxy)pyridin-3-yl)acetic acid], the IC50 is < 1000 nM.

As for `NCc1cccc(-c2nc(C(=O)Nc3ccccc3CC(=O)O)nc3c2ccn3CC2CC2)c1` [Compound 16i, 2-(2-(4-(3-(aminomethyl)phenyl)-7-(cyclopropylmethyl)-7H-pyrrolo[2,3-d]pyrimidine-2-carboxamido)phenyl)acetic acid], the IC50 is < 1000 nM.

Consider `NCc1cccc(-c2cc(COc3ccccc3CC(=O)O)cc3c2ccn3CC2CC2)c1F` [Compound 149b, 2-(2-((4-(3-(aminomethyl)-2-fluorophenyl)-1-(cyclopropylmethyl)-1H-indol-6-yl)methoxy)phenyl)acetic acid], for which the IC50 was < 1000 nM.

With `Cn1ncc2c(-c3ccnc(CN)c3)cc(COc3ccccc3CC(=O)O)cc21` [Compound 135c, 2-(2-((4-(2-(aminomethyl)pyridin-4-yl)-1-methyl-1H-indazol-6-yl)methoxy)phenyl)acetic acid], the IC50 was < 1000 nM.

As for `Cc1ccc(CC(=O)O)c(OCc2cc(-c3cccc(C(N)CF)c3)c3occc3c2)c1` (single isomer, unassigned; (+)) [Compound 269h, (+)-2-(2-((7-(3-(1-amino-2-fluoroethyl)phenyl)benzofuran-5-yl)methoxy)-4-methylphenyl)acetic acid], the IC50 was < 1000 nM.

With `NCc1cc(-c2cc(COc3ccccc3CC(=O)O)cc3c2ccn3S(=O)(=O)C2CC2)ccn1` [Compound 232c, 2-(2-((4-(2-(aminomethyl)pyridin-4-yl)-1-(cyclopropylsulfonyl)-1H-indol-6-yl)methoxy)phenyl)acetic acid], the IC50 was < 1000 nM.

With `NCc1cccc(-c2cc(COc3ccc(CN)cc3CC(=O)O)cc3ccoc23)c1` [Compound 331c, 2-(5-(aminomethyl)-2-((7-(3-(aminomethyl)phenyl)benzofuran-5-yl)methoxy)phenyl)acetic acid], the concentration for half-maximal inhibition (IC50) is < 1000 nM.

As for `NCc1cccc(-c2cc(COc3c(CC(=O)O)ccc4ccoc34)cc3ccoc23)c1` [Compound 392g, 2-(7-((7-(3-(aminomethyl)phenyl)benzofuran-5-yl)methoxy)benzofuran-6-yl)acetic acid], the IC50 is < 1000 nM.

Turning to `N[C@H](CO)c1cc(-c2cc(COc3ccccc3CC(=O)O)cc3ccoc23)ccn1` [Compound 77c, (S)-2-(2-((7-(2-(1-amino-2-hydroxyethyl)pyridin-4-yl)benzofuran-5-yl)methoxy)phenyl)acetic acid], the IC50 was < 1000 nM.

`Cc1ccc(CC(=O)O)c(OCc2cc(-c3cccc(CN)c3F)c3occc3c2)c1` [Compound 270c, 2-(2-((7-(3-(aminomethyl)-2-fluorophenyl)benzofuran-5-yl)methoxy)-4-methylphenyl)acetic acid]: the half-maximal inhibitory concentration (IC50) is < 1000 nM.
